Patent US11542282B2, “Low affinity poly(AD-ribose) polymerase 1 dependent cytotoxic agents” (THE TRUSTEES OF THE UNIVERSITY OF PENNSYLVANIA, priority 2018, dated 2023)

Legend:
PARP-1 = PARP-1 (Homo sapiens, UniProt P09874); experiment: PARP-1 radioligand binding in live OVCAR8 cells ([125I]KX1 competition); settings: for IC50: radioligand binding in OVCAR8 cells; for enzyme affinity in contrast to respective boc-protected analogue: free-amine derivatives
Experimental: Cells were cultured using standard techniques at 37° C. with 5% CO2 and 15% 02. […] Genetically engineered PARP-1 and PARP-2 double knockout mouse embryonic fibroblast (MEF) were used for cell viability studies with wildtype control. All cells were cultured in RPMI 1640 with 10% FBS and 1% penicillin/streptomycin.
The affinity of each compound for the PARP-1 enzyme was evaluated using a radioligand binding method described in Makvandi, A radiotracer strategy to quantify PARP-1 expression in vivo provides a biomarker that can enable patient selection for PARP inhibitor therapy. Cancer Research 2016. Briefly, OVCAR8 ovarian cancer cells were seeded in 96-well Stripwell plates at a density of 40,000 cells/well 24 hrs prior to the study. On the day of study, compounds were diluted in RPMI to concentrations of 100 μM-0.064 nM. […] Reactions were allowed to equilibrate for 1 hr and were then washed with 200 μL of PBS. Wells were separated and counted on an automatic Wizard gamma counter (Perkin Elmer, Waltham Mass.). […] Experiments were repeated three times with adjusting dose concentrations to increase accuracy of IC50 values.
Compounds 10-17 were evaluated for PARP-1 inhibition using a radioligand binding assay protocol with BRCA1 methylated ovarian cancer cells (OVCAR8) as described above. See, Table 3. […] Compared to 1a, oxaazaspiro analogue 1b performed slightly better with scaffold 10b displaying a PARP-1 binding value of 24.9 nM.

MEF WT cells = experiment: Cell viability assay in MEF WT cells; format: cell-based, mouse; settings: NA = Not applicable, no cell death observed
Experimental: (§1) Genetically engineered PARP-1 and PARP-2 double knockout mouse embryonic fibroblast (MEF) were used for cell viability studies with wildtype control.
(§2) Cell viability assays were carried out using four cell lines including OVCAR8, MEF wt, MEF PARP-1 (−/−) KO, and MEF PARP-2 (−/−) KO as described in Makvandi cited above. Briefly, cells were seeded in black wall clear bottom 96-well plates at concentrations of 1,000 cells/well. […] Plates were read on an Enspire multimode plate reader (Perkin Elmer). Data was normalized to percent survival at each concentration evaluated by diving the luminescent signal in treated wells vs. the average of vehicle controls. Experiments were repeated three times and all compounds were assayed during each experiment.
(§3) This isogenic model was selected due to the highly conserved nature of the PARP catalytic domain, all-owing investigation in enzyme specificity.

[1] = system: MEF PARP-2 (-/-) KO cells; experiment: Cell viability assay in MEF PARP-2 KO-/- cells; format: cell-based, mouse; settings: NA = Not applicable, no cell death observed
Experimental: as §1, §2, §3
The cell cytotoxicity profile of these selected compounds in MEF PARP-2 KO−/− cell lines was then analyzed as described above.

Chain of PARP-1 (P09874 whole entry): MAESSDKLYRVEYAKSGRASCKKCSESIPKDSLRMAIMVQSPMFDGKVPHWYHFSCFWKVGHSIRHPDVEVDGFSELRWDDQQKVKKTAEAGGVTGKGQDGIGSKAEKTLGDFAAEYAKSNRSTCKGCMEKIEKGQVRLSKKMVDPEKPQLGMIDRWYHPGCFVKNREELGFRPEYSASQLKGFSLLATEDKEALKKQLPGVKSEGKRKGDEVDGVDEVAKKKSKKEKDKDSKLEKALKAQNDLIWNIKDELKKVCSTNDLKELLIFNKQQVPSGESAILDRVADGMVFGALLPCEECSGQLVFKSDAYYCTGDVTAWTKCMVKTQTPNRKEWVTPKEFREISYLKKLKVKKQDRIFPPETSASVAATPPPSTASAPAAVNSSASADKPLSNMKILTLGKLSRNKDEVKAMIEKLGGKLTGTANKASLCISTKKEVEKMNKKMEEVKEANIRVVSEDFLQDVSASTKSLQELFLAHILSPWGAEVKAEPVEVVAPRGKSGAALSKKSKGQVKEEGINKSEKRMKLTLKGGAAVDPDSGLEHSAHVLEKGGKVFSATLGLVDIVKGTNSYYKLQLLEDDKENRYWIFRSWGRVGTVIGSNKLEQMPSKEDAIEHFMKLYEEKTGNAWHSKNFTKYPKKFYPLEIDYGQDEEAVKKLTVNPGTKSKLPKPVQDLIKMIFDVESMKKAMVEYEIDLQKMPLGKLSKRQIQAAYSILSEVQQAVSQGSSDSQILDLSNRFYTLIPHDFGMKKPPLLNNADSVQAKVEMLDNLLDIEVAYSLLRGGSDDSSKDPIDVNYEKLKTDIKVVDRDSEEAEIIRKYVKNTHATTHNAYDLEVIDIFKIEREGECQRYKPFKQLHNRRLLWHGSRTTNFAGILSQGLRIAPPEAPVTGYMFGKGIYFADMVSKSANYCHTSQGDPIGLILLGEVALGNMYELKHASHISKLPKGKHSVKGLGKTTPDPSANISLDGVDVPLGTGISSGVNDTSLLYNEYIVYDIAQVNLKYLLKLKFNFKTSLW

| EC50 (PARP-1) | SMILES | EC50 (MEF WT cells; Mus musculus) | EC50 ([1]; Mus musculus) | other results |
| --- | --- | --- | --- | --- |
| 0.0339 ± 0.0015 µM | O=C(c1cc(Cc2n[nH]c(=O)c3ccccc23)ccc1F)N1CC2(CCC2)C1 [Compound 10a, 4-(4-Fluoro-3-(2-azaspiro[3.3]heptane-2-carbonyl)benzyl)phthalazin-1(2H)-one] | 48.3 µM | 49 µM |  |
| 0.0249 µM | O=C(c1cc(Cc2n[nH]c(=O)c3ccccc23)ccc1F)N1CC2(COC2)C1 [Compound 10b, 4-(4-Fluoro-3-(2-oxa-6-azaspiro[3.3]heptane-6-carbonyl)benzyl)phthalazin-1(2H)-one] | 52.2 µM | 53.3 µM | IC50 (PARP-1): 0.0249 µM |
| 0.552 µM | CC(C)(C)OC(=O)N1CC2(C1)CN(C(=O)c1cc(Cc3n[nH]c(=O)c4ccccc34)ccc1F)C2 [Compound 10c, Tert-butyl 6-(2-fluoro-5-((4-oxo-3,4-dihydrophthalazin-1-yl)methyl)benzoyl)-2,6-diazaspiro[3.3]heptane-2-carboxylate] | 31.1 µM | 24.7 µM | fold lower PARP-1 affinity compared to the methylene congener (PARP-1; 10c vs 10a, 15b vs 15a): ~16 fold; IC50 (PARP-1): 0.552 µM |
| 2.39 µM | O=C(c1cc(Cc2n[nH]c(=O)c3ccccc23)ccc1F)N1CC2(CNC2)C1 [Compound 10d, 4-(4-Fluoro-3-(2,6-diazaspiro[3.3]heptane-2-carbonyl)benzyl)phthalazin-1(2H)-one] |  |  |  |
| 0.0126 µM | O=C(c1cc(Cc2n[nH]c(=O)c3ccccc23)ccc1F)N1CC2(C1)CN(C(=O)C1CC1)C2 [Compound 10e, 4-(3-(6-(Cyclopropanecarbonyl)-2,6-diazaspiro[3.3]heptane-2-carbonyl)-4-fluorobenzyl)phthalazin-1(2H)-one] |  | 59.8 µM | IC50 (PARP-1): 0.0126 µM |
|  | O=C(c1cc(Cc2n[nH]c(=O)c3ccccc23)ccc1F)N1CCC12CCC2 [Compound 11a, 4-(4-Fluoro-3-(I-azaspiro[3.3]heptane-1-carbonyl)benzyl)phthalazin-1(2H)-one] |  |  | EC50 (MEF WT cells): 48 µM; EC50 [1]: 58.3 µM |
|  | CC(C)(C)OC(=O)N1CC2(CCN2C(=O)c2cc(Cc3n[nH]c(=O)c4ccccc34)ccc2F)C1 [Compound 11b, Tert-butyl 1-(2-fluoro-5-((4-oxo-3,4-dihydrophthalazin-1-yl)methyl)benzoyl)-1,6-diazaspiro[3.3]heptane-6-carboxylate] | 42.9 µM | 35.8 µM |  |
|  | O=C(c1cc(Cc2n[nH]c(=O)c3ccccc23)ccc1F)N1CCC12CNC2 [Compound 11c, 4-(4-Fluoro-3-(1,6-diazaspiro[3.3]heptane-1-carbonyl)benzyl)phthalazin-1(2H)-one] |  |  | enzyme affinity in contrast to respective boc-protected analogue (PARP-1): slight increase in enzyme affinity |
|  | O=C(C1CC1)N1CC2(CCN2C(=O)c2cc(Cc3n[nH]c(=O)c4ccccc34)ccc2F)C1 [Compound 11d, 4-(3-(6-(Cyclopropanecarbonyl)-1,6-diazaspiro[3.3]heptane-1-carbonyl)-4-fluorobenzyl)phthalazin-1(2H)-one] | 53.2 µM | 46.7 µM |  |
| 1.42 µM | O=C(c1cc(Cc2n[nH]c(=O)c3ccccc23)ccc1F)N1CC2(CCNCC2)C1 [Compound 12c, 4-(4-Fluoro-3-(2,7-diazaspiro[3.5]nonane-2-carbonyl)benzyl)phthalazin-1(2H)-one] |  | 68.5 µM | enzyme affinity in contrast to respective boc-protected analogue (PARP-1): slight increase in enzyme affinity |
| 0.1 µM | O=C(c1cc(Cc2n[nH]c(=O)c3ccccc23)ccc1F)N1CC2(CCN(C(=O)C3CC3)CC2)C1 [Compound 12d, 4-(3-(7-(Cyclopropanecarbonyl)-2,7-diazaspiro[3.5]nonane-2-carbonyl)-4-fluorobenzyl)phthalazin-1(2H)-one] | 49.3 µM | 57.2 µM |  |
| 0.284 ± 0.0012 µM | O=C(c1cc(Cc2n[nH]c(=O)c3ccccc23)ccc1F)N1CCC12CCCCC2 [Compound 13a, 4-(4-Fluoro-3-(1-azaspiro[3.5]nonane-1-carbonyl)benzyl)phthalazin-(2H)-one] | 32.6 µM | 78.8 µM |  |
| 2.97 µM | CC(C)(C)OC(=O)N1CCC2(CC1)CCN2C(=O)c1cc(Cc2n[nH]c(=O)c3ccccc23)ccc1F [Compound 13b, Tert-butyl 1-(2-fluoro-5-((4-oxo-3,4-dihydrophthalazin-1-yl)methyl)benzoyl)-1,7-diazaspiro[3.5]nonane-7-carboxylate] | ~23 µM | 33.2 µM | EC50 (MEF WT cells): 23.3 µM |
| 0.11 µM | O=C(c1cc(Cc2n[nH]c(=O)c3ccccc23)ccc1F)N1CCC12CCNCC2 [Compound 13c, 4-(4-Fluoro-3-(1,7-diazaspiro[3.5]nonane-1-carbonyl)benzyl)phthalazin-1(2H)-one] |  | 106 µM | fold improvement of PARP-1 affinity upon removing the boc-group (PARP-1; 13c vs 13b): ~29 fold; IC50 (PARP-1): 0.11 µM |
| 0.431 µM | O=C(C1CC1)N1CCC2(CC1)CCN2C(=O)c1cc(Cc2n[nH]c(=O)c3ccccc23)ccc1F [Compound 13d, 4-(3-(7-(Cyclopropanecarbonyl)-1,7-diazaspiro[3.5]nonane-1-carbonyl)-4-fluorobenzyl)phthalazin-1(2H)-one] | 47.5 µM | 44.4 µM |  |
| 0.0324 ± 0.0011 µM | O=C(c1cc(Cc2n[nH]c(=O)c3ccccc23)ccc1F)N1CCC2(CCC2)C1 [Compound 14a, 4-(4-Fluoro-3-(6-azaspiro[3.4]octane-6-carbonyl)benzyl)phthalazin-1(2H)-one] | 45.2 µM | 54.7 µM |  |
| 1.19 µM | CC(C)(C)OC(=O)N1CC2(CCN(C(=O)c3cc(Cc4n[nH]c(=O)c5ccccc45)ccc3F)C2)C1 [Compound 14b] | 29.2 µM | 31.8 µM |  |
|  | CC(C)(C)OC(=O)N1CCC2(C1)CN(C(=O)c1cc(Cc3n[nH]c(=O)c4ccccc34)ccc1F)C2 [Compound 14b] |  |  | IC50 (PARP-1): 1.19 µM |
| 1.24 µM | O=C(c1cc(Cc2n[nH]c(=O)c3ccccc23)ccc1F)N1CCC2(CNC2)C1 [Compound 14c, 4-(4-Fluoro-3-(2,6-diazaspiro[3.4]octane-6-carbonyl)benzyl)phthalazin-1(2H)-one] |  |  |  |
| 0.0514 ± 0.0011 µM | O=C(c1cc(Cc2n[nH]c(=O)c3ccccc23)ccc1F)N1CCC2(CCCC2)C1 [Compound 15a, 4-(4-Fluoro-3-(2-azaspiro[4.4]nonane-2-carbonyl)benzyl)phthalazin-1(2H)-one] | 31.7 µM | 55.5 µM |  |
| 1.12 µM | O=C(c1cc(Cc2n[nH]c(=O)c3ccccc23)ccc1F)N1CCC2(CCNC2)C1 (stereo not shown) [Compound 15c, 4-(4-Fluoro-3-(2,7-diazaspiro[4.4]nonane-2-carbonyl)benzyl)phthalazin-1(2H)-one] |  | 512 µM | enzyme affinity in contrast to respective boc-protected analogue (PARP-1): slight increase in enzyme affinity |
| 2.59 µM | O=C(c1cc(Cc2n[nH]c(=O)c3ccccc23)ccc1F)N1CCC2(CCN(C(=O)C3CC3)C2)C1 (stereo not shown) [Compound 15d, 4-(3-(7-(Cyclopropanecarbonyl)-2,7-dizaspiro[4.4]nonane-2-carbonyl)-4-fluorobenzyl)phthalazin-1(2H)-one] |  | 70.9 µM |  |
| 3.88 µM | O=C(c1cc(Cc2n[nH]c(=O)c3ccccc23)ccc1F)N1CCC2(CCNCC2)C1 [Compound 16c, 4-(4-Fluoro-3-(2,8-diazaspiro[4.5]decane-2-carbonyl)benzyl)phthalazin-1(2H)-one] |  |  |  |
| 0.234 µM | O=C(c1cc(Cc2n[nH]c(=O)c3ccccc23)ccc1F)N1CCC2(CCNCC2)CC1 [Compound 17c, 4-(4-Fluoro-3-(3,9-diazaspiro[5.5]undecane-3-carbonyl)benzyl)phthalazin-1(2H)-one] |  | 59.7 µM | enzyme affinity in contrast to respective boc-protected analogue (PARP-1): slight increase in enzyme affinity |
| 0.0741 µM | COC1CC(NC(=O)c2cc(Cc3n[nH]c(=O)c4ccccc34)ccc2F)C1 (stereo not shown) [Compound 18] |  |  |  |
| 0.0013 µM | O=C(c1cc(Cc2n[nH]c(=O)c3ccccc23)ccc1F)N1CCC(c2ccc(F)cc2)CC1 [Compound 36, 4-(4-fluoro-3-(4-(4-fluorophenyl)piperidine-1-carbonyl)benzyl)phthalazin-1(2H)-one] |  |  |  |
| 0.0107 ± 0.0011 µM | O=C(c1cc(Cc2n[nH]c(=O)c3ccccc23)ccc1F)N1CC2(CC(OCCF)C2)C1 [Compound 37B, 4-(4-fluoro-3-(6-(2-fluoroethoxy)-2-azaspiro[3.3]heptane-2-carbonyl)benzyl)phthalazin-1(2H)-one] |  |  |  |
| 0.0028 µM | O=C(c1cc(Cc2n[nH]c(=O)c3ccccc23)ccc1F)N1CC2(CC(c3ccc(F)cc3)C2)C1 [Compound 39, 4-(4-fluoro-3-(6-(4-fluorophenyl)-2-azaspiro[3.3]heptane-2-carbonyl)benzyl)phthalazin-1(2H)-one] |  |  |  |
